This note sets out measurements from PubChem BioAssay AID330 (DTP/NCI, 2004).

The structures appear in SMILES notation. Values joined by “and” are separate entries in the source; they are usually repeats but may differ in a detail not shown here. Equal values may be shown once. Inconclusive results and toxic doses are left out.

The subject of this assay is P388 leukemia ip, CD2F1 mice, survival T/C. As to the kind of experiment: NCI In Vivo Anticancer Drug Screen. Data for tumor model P388 Leukemia (intraperitoneal) in CD2F1 (CDF1) mice. Particulars: endpoint: median survival time, higher = longer survival. An outline of the steps:
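Mice carrying the transplanted tumor received test compound or vehicle. Survival was recorded in each group, and the value is the treated-group measurement divided by that of the vehicle-treated control group.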

Where [1] appears, read: dose: 50.0 mg/kg/injection, schedule: Q01DX009 (ip), vehicle: saline.
Setting [2] is: dose: 50.0 mg/kg/injection, schedule: Q01DX009 (ip), vehicle: saline with Tween-80.
Where [3] appears, read: dose: 100.0 mg/kg/injection, schedule: Q01DX009 (ip), vehicle: saline with Tween-80.
The mark [4] stands for this setting: dose: 60.0 mg/kg/injection, schedule: Q01DX005 (ip), vehicle: Klucel (hydroxypropylcellulose) (HPC).
The mark [5] stands for this setting: dose: 120.0 mg/kg/injection, schedule: Q01DX005 (ip), vehicle: Klucel (hydroxypropylcellulose) (HPC).

Take `O=C1C(O)=C(c2ccccc2)C(=O)C(O)=C1c1ccccc1`: the T/C is 101 % of control and 124 % of control (dose: 12.5 mg/kg/injection, schedule: Q01DX009 (ip), vehicle: saline); 157 % of control and 164 % of control under setting [1].

As for `COc1ccc2c(c1)-c1c3c(cc4ccnc(c14)C2=O)OCO3`, the T/C reads like this: (dose: 2.5 mg/kg/injection, schedule: Q01DX009 (ip), vehicle: saline with Tween-80) 107 % of control; (dose: 5.0 mg/kg/injection, schedule: Q01DX009 (ip), vehicle: saline with Tween-80) 114 % of control; (dose: 10.0 mg/kg/injection, schedule: Q01DX009 (ip), vehicle: saline with Tween-80) 122 % of control.

Consider `C=CC(C)(C)C12CC3C(=O)Nc4ccccc4C(=O)N3C1Nc1ccccc12` (stereo not given), for which the T/C (dose: 25.0 mg/kg/injection, schedule: Q01DX005 (ip), vehicle: distilled water + Tween-80 + alcohol) is 95 % of control; the T/C (dose: 50.0 mg/kg/injection, schedule: Q01DX005 (ip), vehicle: distilled water + Tween-80 + alcohol) was 97 % of control; the T/C (dose: 100.0 mg/kg/injection, schedule: Q01DX005 (ip), vehicle: distilled water + Tween-80 + alcohol) was 103 % of control; the T/C (dose: 200.0 mg/kg/injection, schedule: Q01DX005 (ip), vehicle: distilled water + Tween-80 + alcohol) was 98 % of control.

As to `Nc1ccc(S(=O)(=O)Nc2ccccc2-c2nc(N)nc(N)n2)cc1`, the T/C was 98 % of control under setting [2]; 97 % of control under setting [3]; 94 % of control (dose: 200.0 mg/kg/injection, schedule: Q01DX009 (ip), vehicle: saline with Tween-80); 101 % of control (dose: 400.0 mg/kg/injection, schedule: Q01DX009 (ip), vehicle: saline with Tween-80).

Turning to `Cc1coc2c1[C@H]1OC(=O)C3=CCC[C@H](C2)[C@@]31C`, the T/C was 100 % of control (dose: 7.5 mg/kg/injection, schedule: Q01DX009 (ip), vehicle: saline with Tween-80); 100 % of control (dose: 15.0 mg/kg/injection, schedule: Q01DX009 (ip), vehicle: saline with Tween-80); 101 % of control (dose: 30.0 mg/kg/injection, schedule: Q01DX009 (ip), vehicle: saline with Tween-80); 98 % of control (dose: 60.0 mg/kg/injection, schedule: Q01DX009 (ip), vehicle: saline with Tween-80).

As for `COc1cc(C(O)Cc2ccccc2)cc(OC)c1OC` (stereo not given), the T/C is, setting by setting: (dose: 31.25 mg/kg/injection, schedule: Q01DX009 (ip), vehicle: saline + Tween-80 + alcohol) 98 % of control; (dose: 62.5 mg/kg/injection, schedule: Q01DX009 (ip), vehicle: saline + Tween-80 + alcohol) 109 % of control; (dose: 125.0 mg/kg/injection, schedule: Q01DX009 (ip), vehicle: saline + Tween-80 + alcohol) 91 % of control; (dose: 250.0 mg/kg/injection, schedule: Q01DX009 (ip), vehicle: saline + Tween-80 + alcohol) 89 % of control.

In the case of `C=C1C(=O)OC2C[C@@]3(C)CC(O)C[C@H](C)C3=CC12` (stereo not given in full), the T/C (dose: 10.0 mg/kg/injection, schedule: Q01DX009 (ip), vehicle: distilled water + Tween-80 + alcohol) is 103 % of control; the T/C (dose: 20.0 mg/kg/injection, schedule: Q01DX009 (ip), vehicle: distilled water + Tween-80 + alcohol) was 111 % of control; the T/C (dose: 37.5 mg/kg/injection, schedule: Q01DX009 (ip), vehicle: distilled water + Tween-80 + alcohol) was 120 % of control; the T/C (dose: 40.0 mg/kg/injection, schedule: Q01DX009 (ip), vehicle: distilled water + Tween-80 + alcohol) is 117 % of control; the T/C (dose: 75.0 mg/kg/injection, schedule: Q01DX009 (ip), vehicle: distilled water + Tween-80 + alcohol) is 123 % of control.

On to `Oc1cccc(/C=N/N2CCc3ccccc3C2)c1`, for which the T/C reads like this: (dose: 50.0 mg/kg/injection, schedule: Q01DX001 (ip), vehicle: Klucel (hydroxypropylcellulose) (HPC)) 96 % of control; (dose: 100.0 mg/kg/injection, schedule: Q01DX001 (ip), vehicle: Klucel (hydroxypropylcellulose) (HPC)) 100 % of control; (dose: 200.0 mg/kg/injection, schedule: Q01DX001 (ip), vehicle: Klucel (hydroxypropylcellulose) (HPC)) 92 % of control.

Take `CC(C)CC(NC(=O)C(N)Cc1ccc(N(CCCl)CCCl)cc1)C(=O)O` (stereo not given): the T/C was 155 % of control and 172 % of control (dose: 3.7 mg/kg/injection, schedule: Q04DX003 (ip), vehicle: saline with Tween-80); 187 % of control and 203 % of control (dose: 8.4 mg/kg/injection, schedule: Q04DX003 (ip), vehicle: saline with Tween-80); 204 % of control and 272 % of control (dose: 12.6 mg/kg/injection, schedule: Q04DX003 (ip), vehicle: saline with Tween-80); 108 % of control and 118 % of control (dose: 18.9 mg/kg/injection, schedule: Q04DX003 (ip), vehicle: saline with Tween-80); 158 % of control (dose: 32.0 mg/kg/injection, schedule: Q04DX003 (ip), vehicle: saline with Tween-80); 179 % of control (dose: 42.6 mg/kg/injection, schedule: Q04DX003 (ip), vehicle: saline with Tween-80). Moreover, the T/C runs as follows: (dose: 64.0 mg/kg/injection, schedule: Q04DX003 (ip), vehicle: saline with Tween-80) 190 % of control and 198 % of control; (dose: 96.0 mg/kg/injection, schedule: Q04DX003 (ip), vehicle: saline with Tween-80) 243 % of control; (dose: 128.0 mg/kg/injection, schedule: Q04DX003 (ip), vehicle: saline with Tween-80) 88 % of control.

In the case of `COC1C(=O)c2ccccc2N1C(C)=O` (stereo not given), the T/C was 108 % of control under setting [4]; 101 % of control under setting [5]; 99 % of control (dose: 240.0 mg/kg/injection, schedule: Q01DX005 (ip), vehicle: Klucel (hydroxypropylcellulose) (HPC)).

For `O=C(NC(=O)c1c(F)cccc1F)Nc1nc2ccccc2s1`, the T/C is, setting by setting: (dose: 6.25 mg/kg/injection, schedule: Q01DX009 (ip), vehicle: saline with Tween-80) 113 % of control; (dose: 12.5 mg/kg/injection, schedule: Q01DX009 (ip), vehicle: saline with Tween-80) 100 % of control; (dose: 25.0 mg/kg/injection, schedule: Q01DX009 (ip), vehicle: saline with Tween-80) 105 % of control.

As for `O=C(Nc1cccc(Cl)c1)N1CC1`, the T/C is 105 % of control under setting [2] and 113 % of control under setting [3].

As to `CC([Se])=Nc1ccc(Br)cc1`, the T/C runs as follows: (dose: 12.5 mg/kg/injection, schedule: Q04DX003 (ip), vehicle: Klucel (hydroxypropylcellulose) (HPC)) 100 % of control; (dose: 25.0 mg/kg/injection, schedule: Q04DX003 (ip), vehicle: Klucel (hydroxypropylcellulose) (HPC)) 100 % of control.

Regarding `CCCCCCCCCCCCCCCC[N+](C)(CCO)Cc1cnc[nH]1` (stereo not given), the T/C (dose: 1.56 mg/kg/injection, schedule: Q01DX009 (ip), vehicle: saline) was 110 % of control; the T/C (dose: 3.12 mg/kg/injection, schedule: Q01DX009 (ip), vehicle: saline) was 111 % of control; the T/C (dose: 6.25 mg/kg/injection, schedule: Q01DX009 (ip), vehicle: saline) is 118 % of control.

As for `COC1C(/C=C/C(C)=O)OC2OC(C)(C)OC21` (stereo not given), the T/C (dose: 25.0 mg/kg/injection, schedule: Q01DX009 (ip), vehicle: saline) was 106 % of control; the T/C under setting [1] is 107 % of control and 112 % of control.

Consider `CCC(=O)NN1C(=O)c2ccccc2C1=O`, for which the T/C is, setting by setting: (dose: 60.0 mg/kg/injection, schedule: Q01DX005 (ip), vehicle: saline with Tween-80) 103 % of control; (dose: 120.0 mg/kg/injection, schedule: Q01DX005 (ip), vehicle: saline with Tween-80) 104 % of control; (dose: 240.0 mg/kg/injection, schedule: Q01DX005 (ip), vehicle: saline with Tween-80) 99 % of control.

Consider `Cc1cccc(Cl)c1NC(=O)CSCCN(C)C`, for which the T/C was 106 % of control under setting [4] and 103 % of control under setting [5].

Regarding `COc1cccc2c1C(=O)c1c(O)c3c(c(O)c1C2=O)CC(O)(c1csc(C)n1)CC3O` (stereo not given), the T/C by setting is: (dose: 1.56 mg/kg/injection, schedule: Q01DX009 (ip), vehicle: other) 105 % of control; (dose: 3.13 mg/kg/injection, schedule: Q01DX009 (ip), vehicle: other) 96 % of control; (dose: 6.25 mg/kg/injection, schedule: Q01DX009 (ip), vehicle: other) 100 % of control; (dose: 12.5 mg/kg/injection, schedule: Q01DX009 (ip), vehicle: other) 100 % of control; (dose: 25.0 mg/kg/injection, schedule: Q01DX009 (ip), vehicle: other) 99 % of control and 107 % of control; (dose: 50.0 mg/kg/injection, schedule: Q01DX009 (ip), vehicle: other) 108 % of control. Moreover, the T/C (dose: 100.0 mg/kg/injection, schedule: Q01DX009 (ip), vehicle: other) is 107 % of control.
